Measurements taken from patent US9657024B2, “Substituted triazolo-pyrimidine compounds for modulating cell proliferation, differentiation and survival” (STATegics, Inc., priority 2012, dated 2017).
Blank lines part the entries; values can stand above or below the compound they belong to.

Tests used:
[1] = test system: primary dopaminergic neurons; test: Protection of primary dopaminergic neurons from 6-OHDA (THir neurons); format: cell-based, rat; conditions: 6.25 uM 6-OHDA 40 minute
Procedure: Dissociated embryonic D14 rat ventral mesencephalic cells were used.
Dopaminergic neurons play a key role in the pathogenesis of Parkinson's disease and compounds enhancing survival of these cells have significant therapeutic potential. Dissociated embryonic D14 rat ventral mesencephalic cells were used to test the potential of EPO mimetic compounds to protect primary dopaminergic neurons. […] The cells were plated in 48-well poly-D-lysine coated plates using a microisland technique. The microislands were seeded into dry plates in 10 uL aliquots of 3000 cells/uL and incubated at 37° C. for 1 h to allow for adhesion. […] On day 3, the medium was replaced with 6.25 uM 6-hydroxydopamine (6-OHDA, Sigma) for a 40 minute incubation. The toxin was then removed and the cells were cultured for an additional 2 days. On day 5, the cells were fixed, permeabilized and stained for tyrosine hydroxylase-immunoreactive (THir) neurons.

[2] = following intravenous administration; cited from earlier work
frataxin [3] = conditions: 8 FRDA patients, open label pilot trial; cited from earlier work
frataxin [4] = conditions: patients with chronic kidney disease, rhEPO infusion for anemia; cited from earlier work
[5] = test system: human CD34+ hematopoietic stem cells; test: Proliferation of human CD34+ cells (ATP, CellTiterGlo); format: cell-based; conditions: eight days in culture
Procedure: (§1) Compound 10 was tested at different concentrations for its ability to induce proliferation and differentiation of human CD34+ hematopoietic stem cells. Human CD34+ cells were purified by (FIG. 6A) immunomagnetic beads (>90% purity, purchased from Stem Cell Technologies) or (FIG. 6B) cell sorting (at Blood Systems Research Institute) and the cells were cultured in the presence of compounds for eight (FIG. 6A) or eleven (FIG. 6B) days. (FIG. 6A) The level of cell growth and survival was measured based on ATP levels (CellTiterGlo reagent), or (FIG. 6B) the expression level of CD235a was analyzed by flow cytometry as a marker for cell maturation. Cell survival was analyzed using the CellTiterGlo reagent to measure ATP levels as a marker of metabolically active cells that have not undergone apoptosis, and expression of CD235a as a marker of erythroid cell differentiation and as a specific marker for EPO-like erythropoietic activity.

[6] = test system: human CD34+ hematopoietic stem cells; test: Erythroid differentiation of human CD34+ cells (CD235a, flow cytometry); format: cell-based; conditions: eleven days in culture
Procedure: as §1

frataxin [7] = test: Frataxin protein levels in primary human fetal neurons (ELISA); format: cell-based; conditions: 28 days in culture, 24 h, relative to total protein
Procedure: The effects of the compounds on frataxin protein levels in cells were analyzed. […] Embryonic mouse cell line P19 was differentiated into neuronal cells in the presence of retinoic acid and frataxin levels were measured (FIG. 4A). Frataxin levels were measured after 24 h by multi-species frataxin-ELISA (MitoSciences) and compared to total protein levels. The data represent mean+SEM. Primary human fetal neurons (28 days in culture) were also incubated for 24 h in the presence of the compounds, and human frataxin levels were measured by ELISA (MitoSciences) and compared to total protein levels (FIG. 4B). The data represent mean+SEM of triplicate measurements. Compounds were also tested for their effects on frataxin levels in cells derived from patients with FRDA. Cultures of patient peripheral blood mononuclear cells (PBMCs) were also used to test the EPO mimetic compounds for frataxin enhancement in frataxin-deficient cells. Compound 1 and Compounds 5-6 enhanced frataxin levels in these patient cells at concentration 1 uM or lower.

TF-1 cells = test: TF-1 cell proliferation; format: cell-based, human; conditions: at concentrations that provided significant neuroprotective effects
EPO receptor [8] = molecular target: T1, EPO receptor (Homo sapiens, UniProt P19235); test: EPO receptor phosphorylation in TF-1 cells (phospho-EPOR ELISA); format: cell-based; set-up: endogenous in cells; host or cells: TF-1 human erythroleukemia cell line; conditions: TF-1, 10 min
T1 sequence (P19235 25-508): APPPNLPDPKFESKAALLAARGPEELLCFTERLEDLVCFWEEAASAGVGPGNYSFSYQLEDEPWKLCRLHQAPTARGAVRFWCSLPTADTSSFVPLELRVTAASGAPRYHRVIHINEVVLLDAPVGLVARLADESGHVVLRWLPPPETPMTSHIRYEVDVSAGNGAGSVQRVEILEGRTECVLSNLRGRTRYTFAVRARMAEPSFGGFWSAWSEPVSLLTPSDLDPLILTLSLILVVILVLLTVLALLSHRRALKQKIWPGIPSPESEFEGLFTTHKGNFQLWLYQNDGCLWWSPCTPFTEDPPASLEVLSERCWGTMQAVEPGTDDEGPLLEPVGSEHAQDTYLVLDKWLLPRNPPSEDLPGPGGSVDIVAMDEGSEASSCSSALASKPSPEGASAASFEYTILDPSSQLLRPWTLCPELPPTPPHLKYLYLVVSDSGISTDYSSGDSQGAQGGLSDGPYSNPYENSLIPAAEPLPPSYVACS
Procedure: (§2) Primary micro-dissected fetal brain tissue was obtained from a commercial source (Advanced Bioscience Resources, Inc., Alameda, Calif.). Cultured primary human fetal neural cells (3 h, 1 day, 17 days, or 26 days in culture) were incubated with Compound 5, Compound 6, or controls for 10 min (FIG. 5A). Phospho-EPOR was detected by ELISA (R&D Systems). […] Human erythropoietic cell line TF-1 was cultured for 10 min in the presence of Compound 5, Compound 6, or the controls, and phospho-EPOR was detected by ELISA (R&D Systems). The data represent mean+SEM of triplicate cultures.

EPO receptor [9] = molecular target: T1, EPO receptor; test: EPO receptor phosphorylation in primary human fetal neural cells (phospho-EPOR ELISA); format: cell-based; set-up: endogenous in cells; host or cells: primary human fetal neural cells from micro-dissected fetal brain tissue (Advanced Bioscience Resources, Inc.); conditions: 10 min incubation; for level of EPO receptor activation compared with recombinant human EPO: EPO 10 IU/ml
Procedure: as §2, with “cultures. […] The receptor activation results were consistent with functional cell based assays using primary human CD34+ bone marrow progenitor cells and erythroleukemia cell line TF-1.” for “cultures.”

PC12 cells = test: PC12 cell survival under serum deprivation (CellTiter-Glo); format: cell-based, rat; conditions: 72 hours; for minimal effective concentration: Rattus norvegicus, PC-12, NS = RLU increased <25% at 5 uM, read-out: PC12 cell proliferation (CellTiter-Glo ®) Concentration at which RLU increased >25% compared to medium control
Procedure: Each culture condition was performed in quadruplicate in each experiment and the mean values were calculated. The results represent mean±SEM of relative light unit values when compared to the mean values obtained in the presence of the medium alone. A total of 13 experiments were performed and the statistical significance was analyzed using GraphPad Prism software using ANOVA, followed by paired t-test. The symbol * indicates P-values<0.01.
PC12 cells were cultured in DMEM supplemented with 10% fetal calf serum and 5% horse serum. […] Cell viability was analyzed by CellTiter-Glo® reagent (Promega).
PC12 cells were cultured in DMEM supplemented with 10% fetal calf serum and 5% horse serum. […] Cell survival of the serum-starved cells was analyzed by CellTiter-Glo® reagent luminescence reading.
FIG. 2 illustrates neuroprotective effects of Compounds 1-5 when tested in PC12 cell protection assays. PC12 cells were subjected to serum deprivation as described under FIG. 1.
PC12 cells were cultured in DMEM supplemented with 10% fetal calf serum and 5% horse serum. […] Cell survival of the serum-starved cells was analyzed by CellTiter-Glo® reagent luminescence reading (relative light units, “RLU”). […] “NS” indicates RLU increased <25% when compounds were tested at 5 uM.

rats = test: Kidney and CNS protection in rats with DMA + Cremophor EL toxicity; format: in vivo, rat; conditions: DMA + CrEL 2.5 mL/kg each, IP
Procedure: High-dose N,N-dimethylacetamide (DMA)+ Cremophor EL (CrEL) (2.5 mL/kg each, IP) was used to induce acute CNS and organ toxicity, and the potential of Compound 5 to protect the rats was studied.

Compound: rhEPO: recombinant human (rh)EPO, erythropoietin; positive control
- protection of dopaminergic neurons from 6-OHDA toxicity ([1]; 10 IU/ml): significantly protected
- concentration in human cerebrospinal fluid lower than in circulation [2]: more than 1000 fold
- overall increase in frataxin in lymphocytes (frataxin [3]): 24%
- increase in frataxin levels in peripheral blood mononuclear cells (frataxin [4]): 2-3 fold

Compound: COc1ccc(NC(=O)CSc2nc3nc(C)cc(C)n3n2)cc1 [Example 10, 2-({5,7-dimethyl-[1,2,4]triazolo[1,5-a]pyrimidin-2-yl}sulfanyl)-N-(4-methoxyphenyl)acetamide]
- CD34+ progenitor cell proliferation (ATP levels) [5]: dose-dependent induction of CD34+ progenitor cell proliferation
- erythroid differentiation (CD235a expression) [6]: differentiation into erythroid cells expressing CD235a

- EPO receptor activation (phospho-EPOR) (EPO receptor [8]): did not activate EPO receptor
Compound: Cc1cc(C)n2nc(OCCN(CCO)c3ccccc3)nc2n1 [Example 13, 2-{[2-({5,7-Dimethyl-[1,2,4]triazolo[1,5-a]pyrimidin-2-yl}oxy)ethyl](phenyl)amino}ethan-1-ol]
- frataxin protein levels (frataxin [7]): increased frataxin protein levels
- proliferation of TF-1 cells (TF-1 cells): did not induce proliferation of TF-1 cells
- EPO receptor phosphorylation (EPO receptor [9]): increased EPO receptor phosphorylation in a dose-dependent manner
- level of EPO receptor activation compared with recombinant human EPO (EPO receptor [9]): comparable to that induced by recombinant human EPO

Compound: Cc1cc(C)n2nc(SCCOc3ccc(F)c(Cl)c3)nc2n1 [Example 6, 2-{[2-(3-chloro-4-fluorophenoxy)ethyl]sulfanyl}-5,7-dimethyl-[1,2,4]triazolo[1,5-a]pyrimidine]
- minimal effective concentration (PC12 cells; serum-free conditions): < 5 µM

Compound: Cc1cc(C)n2nc(SCCOc3ccc(Cl)cc3)nc2n1 [Example 1, 2-{[2-(4-chlorophenoxy)ethyl]sulfanyl}-5,7-dimethyl-[1,2,4]triazolo[1,5-a]pyrimidine]
- effect on PC12 cell viability compared with rhEPO (PC12 cells; compound at 1 uM, serum-free): at least a comparable effect on cell viability as rhEPO
- level of PC12 cell protection compared with rhEPO at 10 U/ml (PC12 cells; compound at 5 uM, serum-free): even higher level of protection than rhEPO
- concentration at which significant protective effect on PC12 cells was observed (PC12 cells; serum-free conditions): 1 µM
- protection of dopaminergic neurons from 6-OHDA toxicity ([1]; 1 uM): significantly protected

- EPO receptor activation (phospho-EPOR) (EPO receptor [8]): did not activate EPO receptor
Compound: Cc1cc(C)n2nc(OCCOc3ccc(Cl)cc3)nc2n1 [Example 11, 2-[2-(4-chlorophenoxy)ethoxy]-5,7-dimethyl-[1,2,4]triazolo[1,5-a]pyrimidine]
- frataxin protein levels (frataxin [7]): increased frataxin protein levels
- proliferation of TF-1 cells (TF-1 cells): did not induce proliferation of TF-1 cells
- kidney-protective effect (hypoproteinemia in serum) (rats): reduced hypoproteinemia in serum
- response to formalin injection (rats): normalized the response of the rats to formalin injection
- EPO receptor phosphorylation (EPO receptor [9]): increased EPO receptor phosphorylation in a dose-dependent manner
- level of EPO receptor activation compared with recombinant human EPO (EPO receptor [9]): comparable to that induced by recombinant human EPO

Compound: CCc1cc(CC)n2nc(CCCOc3ccc(Cl)cc3)nc2n1 [Example 28, 2-[3-(4-chlorophenoxy)propyl]-5,7-diethyl-[1,2,4]triazolo[1,5-a]pyrimidine]
- minimal effective concentration (PC12 cells; serum-free conditions): < 5 µM
